Assay [1] deals with Human M3 receptor (Homo sapiens, UniProt P20309). The note with it: read-out: M3 binding affinity.
The target in assay [2] is Human β2 adrenoceptor (Homo sapiens, UniProt P07550). The note with it: read-out: B2 binding affinity.
Human β2 adrenoceptor, sequence (P07550 whole entry): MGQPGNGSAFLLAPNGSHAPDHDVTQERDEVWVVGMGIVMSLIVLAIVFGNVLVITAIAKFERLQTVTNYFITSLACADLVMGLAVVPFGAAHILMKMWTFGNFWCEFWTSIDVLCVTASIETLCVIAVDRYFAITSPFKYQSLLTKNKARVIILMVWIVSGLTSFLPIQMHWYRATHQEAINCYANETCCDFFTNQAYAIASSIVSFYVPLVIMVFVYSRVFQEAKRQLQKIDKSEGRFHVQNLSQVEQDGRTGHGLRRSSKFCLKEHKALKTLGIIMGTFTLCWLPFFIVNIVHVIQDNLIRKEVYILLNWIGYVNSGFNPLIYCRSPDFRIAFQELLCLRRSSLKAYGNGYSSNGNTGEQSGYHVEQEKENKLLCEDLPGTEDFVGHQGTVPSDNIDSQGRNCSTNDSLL

Human M3 receptor, sequence (P20309 whole entry): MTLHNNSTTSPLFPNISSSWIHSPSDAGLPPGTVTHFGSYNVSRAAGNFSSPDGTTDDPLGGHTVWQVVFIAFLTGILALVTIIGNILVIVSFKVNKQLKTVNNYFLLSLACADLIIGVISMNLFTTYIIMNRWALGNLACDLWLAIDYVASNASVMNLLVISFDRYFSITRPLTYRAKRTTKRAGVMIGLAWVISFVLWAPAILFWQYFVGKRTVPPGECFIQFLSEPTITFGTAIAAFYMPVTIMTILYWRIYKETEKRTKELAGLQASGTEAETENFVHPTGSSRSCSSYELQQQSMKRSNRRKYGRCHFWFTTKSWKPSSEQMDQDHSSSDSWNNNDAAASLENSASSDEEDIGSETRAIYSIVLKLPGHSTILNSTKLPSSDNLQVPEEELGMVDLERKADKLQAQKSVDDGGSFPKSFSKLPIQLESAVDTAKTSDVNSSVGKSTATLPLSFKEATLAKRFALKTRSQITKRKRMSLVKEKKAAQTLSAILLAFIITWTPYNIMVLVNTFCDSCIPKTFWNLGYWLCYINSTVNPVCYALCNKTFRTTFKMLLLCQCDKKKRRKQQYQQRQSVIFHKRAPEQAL

Regarding `O=C(NC1CN(C(=O)COc2cccc([C@](O)(C(=O)OCC3CCN(Cc4ccccc4)CC3)c3ccccc3)c2)C1)c1ccc(CCNC[C@H](O)c2ccc(O)c3[nH]c(=O)ccc23)cc1` [Compound 102, (1-benzylpiperidin-4-yl)methyl (S)-2-hydroxy-2-(3-(2-(3-(4-(2-(((R)-2-hydroxy-2-(8-hydroxy-2-oxo-1,2-dihydroquinolin-5-yl)ethyl)amino)ethyl)benzamido)azetidin-1-yl)-2-oxoethoxy)phenyl)-2-phenylacetate], the IC50 in assay [1] and in assay [2] was < 0.3 nM in each case.

`O=C(COc1cccc([C@](O)(C(=O)OCC2CCN(Cc3ccccc3)CC2)c2ccccc2)c1)NCCNC(=O)c1ccc(CCNC[C@H](O)c2ccc(O)c3[nH]c(=O)ccc23)cc1` [Compound 103, (1-benzylpiperidin-4-yl)methyl (S)-2-hydroxy-2-(3-(2-((2-(4-(2-(((R)-2-hydroxy-2-(8-hydroxy-2-oxo-1,2-dihydroquinolin-5-yl)ethyl)amino)ethyl)benzamido)ethyl)amino)-2-oxoethoxy)phenyl)-2-phenylacetate]: the figures for the IC50 in assay [1] and in assay [2] were < 0.3 nM and 0.3 to 3 nM, respectively.

Regarding `O=C(COc1cccc([C@](O)(C(=O)OCC2CCN(Cc3ccccc3)CC2)c2ccccc2)c1)N[C@@H]1CCN(C(=O)c2ccc(CCNC[C@H](O)c3ccc(O)c4[nH]c(=O)ccc34)cc2)C1` [Compound 104, (1-benzylpiperidin-4-yl)methyl (S)-2-hydroxy-2-(3-(2-(((R)-1-(4-(2-(((R)-2-hydroxy-2-(8-hydroxy-2-oxo-1,2-dihydroquinolin-5-yl)ethyl)amino)ethyl)benzoyl)pyrrolidin-3-yl)amino)-2-oxoethoxy)phenyl)-2-phenylacetate], the IC50 was < 0.3 nM in assay [1] and 0.3 to 3 nM in assay [2].

On to `O=C(COc1cccc([C@](O)(C(=O)OCC2CCN(Cc3ccccc3)CC2)c2ccccc2)c1)N[C@@H]1CCCN(C(=O)c2ccc(CCNC[C@H](O)c3ccc(O)c4[nH]c(=O)ccc34)cc2)C1` [Compound 105, (1-benzylpiperidin-4-yl)methyl (S)-2-hydroxy-2-(3-(2-(((R)-1-(4-(2-(((R)-2-hydroxy-2-(8-hydroxy-2-oxo-1,2-dihydroquinolin-5-yl)ethyl)amino)ethyl)benzoyl)piperidin-3-yl)amino)-2-oxoethoxy)phenyl)-2-phenylacetate], for which the IC50 in assay [1] and in assay [2] was 0.3 to 3 nM each time.

In the case of `O=C(COc1cccc([C@](O)(C(=O)OCC2CCN(Cc3ccccc3)CC2)c2ccccc2)c1)N[C@H]1CCCN(C(=O)c2ccc(CCNC[C@H](O)c3ccc(O)c4[nH]c(=O)ccc34)cc2)C1` [Compound 106, (1-benzylpiperidin-4-yl)methyl (S)-2-hydroxy-2-(3-(2-(((S)-1-(4-(2-(((R)-2-hydroxy-2-(8-hydroxy-2-oxo-1,2-dihydroquinolin-5-yl)ethyl)amino)ethyl)benzoyl)piperidin-3-yl)amino)-2-oxoethoxy)phenyl)-2-phenylacetate], the IC50 in assay [1] and in assay [2] was 0.3 to 3 nM throughout.

`O=C(COc1cccc([C@](O)(C(=O)OCC2CCN(Cc3ccccc3)CC2)c2ccccc2)c1)N[C@H]1CCN(C(=O)c2ccc(CCNC[C@H](O)c3ccc(O)c4[nH]c(=O)ccc34)cc2)C1` [Compound 107, (1-benzylpiperidin-4-yl)methyl (S)-2-hydroxy-2-(3-(2-(((S)-1-(4-(2-(((R)-2-hydroxy-2-(8-hydroxy-2-oxo-1,2-dihydroquinolin-5-yl)ethyl)amino)ethyl)benzoyl)pyrrolidin-3-yl)amino)-2-oxoethoxy)phenyl)-2-phenylacetate]: the values for the IC50 in assay [1] and in assay [2] were 0.3 to 3 nM and < 0.3 nM, respectively.

As for `O=C(N[C@H]1CCCN(C(=O)COc2cccc([C@](O)(C(=O)OCC3CCN(Cc4ccccc4)CC3)c3ccccc3)c2)C1)c1ccc(CCNC[C@H](O)c2ccc(O)c3[nH]c(=O)ccc23)cc1` [Compound 108, (1-benzylpiperidin-4-yl)methyl (S)-2-hydroxy-2-(3-(2-((S)-3-(4-(2-(((R)-2-hydroxy-2-(8-hydroxy-2-oxo-1,2-dihydroquinolin-5-yl)ethyl)amino)ethyl)benzamido)piperidin-1-yl)-2-oxoethoxy)phenyl)-2-phenylacetate], the IC50 in assay [1] and in assay [2] was 0.3 to 3 nM each time.

On to `O=C(N[C@H]1CCN(C(=O)COc2cccc([C@](O)(C(=O)OCC3CCN(Cc4ccccc4)CC3)c3ccccc3)c2)C1)c1ccc(CCNC[C@H](O)c2ccc(O)c3[nH]c(=O)ccc23)cc1` [Compound 109, (1-benzylpiperidin-4-yl)methyl (S)-2-hydroxy-2-(3-(2-((S)-3-(4-(2-(((R)-2-hydroxy-2-(8-hydroxy-2-oxo-1,2-dihydroquinolin-5-yl)ethyl)amino)ethyl)benzamido)pyrrolidin-1-yl)-2-oxoethoxy)phenyl)-2-phenylacetate], for which the IC50 in assay [1] and in assay [2] was 0.3 to 3 nM throughout.

In the case of `O=C(N[C@@H]1CCN(C(=O)COc2cccc([C@](O)(C(=O)OCC3CCN(Cc4ccccc4)CC3)c3ccccc3)c2)C1)c1ccc(CCNC[C@H](O)c2ccc(O)c3[nH]c(=O)ccc23)cc1` [Compound 110, (1-benzylpiperidin-4-yl)methyl (S)-2-hydroxy-2-(3-(2-((R)-3-(4-(2-(((R)-2-hydroxy-2-(8-hydroxy-2-oxo-1,2-dihydroquinolin-5-yl)ethyl)amino)ethyl)benzamido)pyrrolidin-1-yl)-2-oxoethoxy)phenyl)-2-phenylacetate], the IC50 in assay [1] and in assay [2] was 0.3 to 3 nM in each case.

Regarding `O=C(COc1cccc([C@](O)(C(=O)OCC2CCN(Cc3ccccc3)CC2)c2ccccc2)c1)N1C[C@H]2CCN(C(=O)c3ccc(CCNC[C@H](O)c4ccc(O)c5[nH]c(=O)ccc45)cc3)[C@H]2C1` [Compound 111, (1-benzylpiperidin-4-yl)methyl (S)-2-hydroxy-2-(3-(2-((3aR,6aR)-1-(4-(2-(((R)-2-hydroxy-2-(8-hydroxy-2-oxo-1,2-dihydroquinolin-5-yl)ethyl)amino)ethyl)benzoyl)hexahydropyrrolo[3,4-b]pyrrol-5(1H)-yl)-2-oxoethoxy)phenyl)-2-phenylacetate], the IC50 in assay [1] and in assay [2] was 0.3 to 3 nM in each case.

On to `O=C(COc1cccc([C@](O)(C(=O)OCC2CCN(Cc3ccccc3)CC2)c2ccccc2)c1)N1C[C@@H]2CCN(C(=O)c3ccc(CCNC[C@H](O)c4ccc(O)c5[nH]c(=O)ccc45)cc3)[C@@H]2C1` [Compound 112, (1-benzylpiperidin-4-yl)methyl (S)-2-hydroxy-2-(3-(2-((3aS,6aS)-1-(4-(2-(((R)-2-hydroxy-2-(8-hydroxy-2-oxo-1,2-dihydroquinolin-5-yl)ethyl)amino)ethyl)benzoyl)hexahydropyrrolo[3,4-b]pyrrol-5(1H)-yl)-2-oxoethoxy)phenyl)-2-phenylacetate], for which the values for the IC50 in assay [1] and in assay [2] were 0.3 to 3 nM and < 0.3 nM, respectively.

For the compound `O=C(N[C@@H]1CCCN(C(=O)COc2cccc([C@](O)(C(=O)OCC3CCN(Cc4ccccc4)CC3)c3ccccc3)c2)C1)c1ccc(CCNC[C@H](O)c2ccc(O)c3[nH]c(=O)ccc23)cc1` [Compound 113, (1-benzylpiperidin-4-yl)methyl (S)-2-hydroxy-2-(3-(2-((R)-3-(4-(2-(((R)-2-hydroxy-2-(8-hydroxy-2-oxo-1,2-dihydroquinolin-5-yl)ethyl)amino)ethyl)benzamido)piperidin-1-yl)-2-oxoethoxy)phenyl)-2-phenylacetate], the IC50 in assay [1] and in assay [2] was 0.3 to 3 nM throughout.

As to `O=C(N[C@H]1C[C@H](NC(=O)c2ccc(COc3cccc([C@](O)(C(=O)OCC4CCN(Cc5ccccc5)CC4)c4ccccc4)c3)cc2)C1)c1ccc(CCNC[C@H](O)c2ccc(O)c3[nH]c(=O)ccc23)cc1` [Compound 114, (1-Benzylpiperidin-4-yl)methyl (S)-2-hydroxy-2-(3-((4-(((1R,3S)-3-(4-(2-(((R)-2-hydroxy-2-(8-hydroxy-2-oxo-1,2-dihydroquinolin-5-yl)ethyl)amino)-ethyl)benzamido)cyclobutyl)carbamoyl)benzyl)oxy)phenyl)-2-phenylacetate], the IC50 in assay [1] and in assay [2] was 0.3 to 3 nM each time.

Take `O=C(c1ccc(CCNC[C@H](O)c2ccc(O)c3[nH]c(=O)ccc23)cc1)N1CCC2(CC1)CCN(C(=O)c1ccc(COc3cccc([C@](O)(C(=O)OCC4CCN(Cc5ccccc5)CC4)c4ccccc4)c3)cc1)CC2` [Compound 115, (1-benzylpiperidin-4-yl)methyl (S)-2-hydroxy-2-(3-((4-(9-(4-(2-(((R)-2-hydroxy-2-(8-hydroxy-2-oxo-1,2-dihydroquinolin-5-yl)ethyl)amino)ethyl)benzoyl)-3,9-diazaspiro[5.5]undecane-3-carbonyl)benzyl)oxy)phenyl)-2-phenylacetate]: the IC50 in assay [1] and in assay [2] was 0.3 to 3 nM each time.

In the case of `O=C(c1ccc(CCNC[C@H](O)c2ccc(O)c3[nH]c(=O)ccc23)cc1)N1CC2(C1)CN(C(=O)c1ccc(COc3cccc([C@](O)(C(=O)OCC4CCN(Cc5ccccc5)CC4)c4ccccc4)c3)cc1)C2` [Compound 116, (1-benzylpiperidin-4-yl)methyl (S)-2-hydroxy-2-(3-((4-(6-(4-(2-(((R)-2-hydroxy-2-(8-hydroxy-2-oxo-1,2-dihydroquinolin-5-yl)ethyl)amino)ethyl)benzoyl)-2,6-diazaspiro[3.3]heptane-2-carbonyl)benzyl)oxy)phenyl)-2-phenylacetate], the IC50 in assay [1] is 0.3 to 3 nM; in assay [2], < 0.3 nM.

For the compound `O=C(c1ccc(CCNC[C@H](O)c2ccc(O)c3[nH]c(=O)ccc23)cc1)N1CCC2(CC1)CN(C(=O)c1ccc(COc3cccc([C@](O)(C(=O)OCC4CCN(Cc5ccccc5)CC4)c4ccccc4)c3)cc1)C2` [Compound 117, (1-benzylpiperidin-4-yl)methyl (S)-2-hydroxy-2-(3-((4-(7-(4-(2-(((R)-2-hydroxy-2-(8-hydroxy-2-oxo-1,2-dihydroquinolin-5-yl)ethyl)amino)ethyl)benzoyl)-2,7-diazaspiro[3.5]nonane-2-carbonyl)benzyl)oxy)phenyl)-2-phenylacetate], the IC50 in assay [1] was 0.3 to 3 nM; in assay [2], < 0.3 nM.

(Values after patent US9579314B2 (priority 2015, dated 2017).)
